Assay results reported in patent publication US10139394B2, “Method for controlling cancer metastasis or cancer cell migration by modulating the cellular level of lysyl tRNA synthetase” (Medicinal Bioconvergence Research Center, priority 2008, dated 2018).

Key:
[1] = tested on: membrane translocation of KRS; test: Laminin-dependent membrane translocation of KRS and 67LR, cell fractionation and Western blotting; format: cell-based; conditions: A549 cells; inhibitor for 3 hr, then laminin for 1 hr; FIG. 9 upper
Description: (§1) In FIG. 7, A549 cells were treated with laminin (10 ug/ml) and the level of 67LR, 37LRP and KRS was determined by Western blotting at the indicated times. Hsp90 and Cadherin were used as markers for cytoplasm and membrane, respectively. In FIG. 8, A549 cells untreated or treated with laminin for 1 h were subjected to immunofluorescence staining with anti-67LR (MLuC5, Santacruz, sc-59732) (red) and -KRS antibodies (green). In FIG. 9, A549 cells were treated with U73122 (U), staurosporin (ST) and LY294002 (LY) that inhibit PLC-gamma, PKC and PI3K, respectively, for 3 hr, then with laminin for 1 hr and checked how these kinase inhibitors would affect the membrane and cytoplasmic level of 67LR and KRS. In FIG. 10, A549 cells were transfected with Myc-KRS and incubated for 24 h. The cells were treated with the indicated chemicals and then with laminin as above. Myc-KRS was immunoprecipitated, and immunoblotted with anti-p-Thr, -Ser, and -Tyr antibodies. In FIG. 11, A549 cells were transfected with Myc-KRS and cultivated for 24 hr. The transfectants were pre-treated with LY294002 for 3 hr and then treated with laminin for 1 h. Myc-KRS was immunoprecipitated and co-precipitation of 67LR was determined by Western blotting. IgG was used as a control for immunoprecipitation. In FIG. 12, A549 cells were cultivated in the absence and presence of laminin and LY294002 as indicated. EPRS (glutamyl-prolyl-tRNA synthetase) was immunoprecipitated with its specific antibody (AbCam), and co-immunoprecipitation of KRS was determined by Western blotting (upper). The immune-depleted supernatant (ID) were subjected to Western blottingting with anti-KRS and -EPRS antibodies.
The cells were lysed with 20 mM Tris-HCl (pH 7.4) buffer containing 150 mM NaCl, 0.5% TritonX-100, 0.1% SDS, and protease inhibitor. The protein extracts were incubated with normal IgG and protein G agarose for 2 hr and then centrifuged to remove nonspecific IgG binding proteins. […]

[2] = tested on: phosphorylation of KRS; test: Laminin-induced phosphorylation of Myc-KRS, immunoprecipitation and immunoblot with anti-p-Thr, -Ser, -Tyr antibodies; format: cell-based, human; conditions: Myc-KRS transfected A549 cells; FIG. 10
Description: as §1, with “IgG was used as a control for immunoprecipitation. In FIG. 12, A549 cells were cultivated in the absence and presence of laminin and LY294002 as indicated.” left out, “The immune-depleted supernatant (ID) were subjected to Western blottingting with anti-KRS and -EPRS antibodies.” left out

[3] = tested on: A549 cells; test: Cell migration assay in Transwell chamber; format: cell-based; conditions: purified KRS at different concentration in lower chamber, 6 hr, FIG. 25
Description: In FIG. 18, A549 cells were transfected with the indicated plasmids, incubated in the absence and presence of laminin and their effect on cell migration was determined by measuring the migrated cells in transwell chamber as described. The numbers of the cells passed through the membrane were counted and shown in each panel. The experiments were performed three times. In FIG. 19, the cells treated as above were used to determine MMP-2 activity and level by zymography and Western blotting, respectively. In FIG. 20, Breast carcinoma 4T-1 cells were transfected with the indicated siRNA and subcutaneously injected to the back of Balb/C mice. After 21 days, mouse lungs were isolated and tumor nodules over 1 mm in diameter were counted. In FIG. 21, two different 4T-1 cells stably expressing exogenously introduced KRS (KRS-1 and -2) were also inoculated as above and the tumor nodules were counted 30 days after injection. […]
FIGS. 24 to 27 show effect of intracellular and extracellular KRS on cell migration, protein synthesis and cell cycle. In FIG. 24, Migration of A549 cells incubated in the absence of laminin was determined was determined by measuring the migrated cells in Transwell chamber. […] After 6 hr of incubation, the migrant were counted. […] In FIG. 27, A549 cells transfected as indicated were fixed and stained with propidium iodide, and their cell cycle was determined by flow cytometry. […]

| Compound | Laminin-dependent increase of KRS and 67LR in the membrane fraction [1] | laminin-induced phosphorylated KRS at threonine and serine in presence of inhibitor [2] | cell migration (chemotactic activity of extracellular KRS) [3] |
| --- | --- | --- | --- |
| COc1ccc2c(c1)CC[C@@H]1[C@@H]2CC[C@]2(C)[C@@H](NCCCCCCN3C(=O)C=CC3=O)CC[C@@H]12 [U73122] | still showed laminin-dependent induction of 67LRS |  |  |
| CN[C@@H]1C[C@H]2O[C@@](C)([C@@H]1OC)n1c3ccccc3c3c4c(c5c6ccccc6n2c5c31)C(=O)NC4 [staurosporin, reference compound] | still showed laminin-dependent induction of 67LRS | did not give any effect |  |
| purified KRS: purified human lysyl-tRNA synthetase protein added extracellularly |  |  | little affected |
